# Measurements from US6306422A, “Compositions and devices for controlled release of active ingredients” (priority 1998, dated 2001).
# Counter-ions that a name gives are not always drawn.
# Assays:
# [1] = test system: struvite encrustation; settings: cited from earlier work
# [2] = test system: Proteus sp. and other urease-producing organisms; settings: cited from earlier work
# [3] = in vivo; cited from earlier work
# [4] = cited from earlier work
# [5] = cited from earlier work; remark: listed apart in the source
# [6] = target: T1, urease (Proteus mirabilis, UniProt P17086); assay: Bacteria/urease study: pH of artificial urine with Proteus mirabilis; assay type: cell-based; settings: 10^11 bacteria/ml
# T1 construct: endogenous in cells; host or cells: living Proteus mirabilis (clinic isolate) in artificial urine
# T1 sequence (P17086 whole entry): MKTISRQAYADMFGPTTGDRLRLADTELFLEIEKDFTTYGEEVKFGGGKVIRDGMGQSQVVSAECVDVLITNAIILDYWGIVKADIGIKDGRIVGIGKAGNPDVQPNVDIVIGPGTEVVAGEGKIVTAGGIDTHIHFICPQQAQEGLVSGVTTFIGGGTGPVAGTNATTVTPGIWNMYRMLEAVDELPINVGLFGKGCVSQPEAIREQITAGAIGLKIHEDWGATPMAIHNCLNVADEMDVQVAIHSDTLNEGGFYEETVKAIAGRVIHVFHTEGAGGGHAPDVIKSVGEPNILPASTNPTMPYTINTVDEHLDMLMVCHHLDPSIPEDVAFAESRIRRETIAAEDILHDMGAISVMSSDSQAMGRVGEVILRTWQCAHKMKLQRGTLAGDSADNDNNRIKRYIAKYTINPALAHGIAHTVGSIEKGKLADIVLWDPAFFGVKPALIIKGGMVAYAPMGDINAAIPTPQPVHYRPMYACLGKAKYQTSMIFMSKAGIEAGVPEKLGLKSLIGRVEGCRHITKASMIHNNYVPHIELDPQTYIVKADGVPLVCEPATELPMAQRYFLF
# T1 sequence (P17088 whole entry, further chain): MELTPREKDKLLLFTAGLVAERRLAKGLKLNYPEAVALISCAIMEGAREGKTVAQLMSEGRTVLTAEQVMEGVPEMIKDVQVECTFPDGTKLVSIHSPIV
# T1 sequence (P17087 whole entry, further chain): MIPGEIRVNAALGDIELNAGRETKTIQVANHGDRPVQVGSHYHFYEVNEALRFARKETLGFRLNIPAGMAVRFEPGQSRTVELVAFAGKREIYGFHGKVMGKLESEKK
# Protocol: After mixing, the urine was filter-sterilized into a sterile container using a 0.2 μm pore size filtration system. A solution of this artificial urine containing 750 μg/ml of AHA was prepared by dissolving 0.0757 g of the AHA in 100 ml of the urine. This solution was then diluted in series to yield artificial urine with AHA concentrations of 375, 187.5, 75, and 7.5 μg/ml.
# Fifty milliliters of these solutions were sterilized by filtering them through a syringe filter with 0.2 μm pore size into a sterile container.
# Proteus mirabilis were harvested from the Surgery/Urology clinic at the University of Florida, Gainesville, Fla. These bacteria were cultured on a heart infusion agar (Difco Laboratories) for 48 hours at 37° C. Bacteria were aseptically harvested and suspended in a solution of artificial urine not containing any of the urease inhibitor. Dilutions of this suspension were made to 10,000, and a count of the bacteria was made on a microscopic counting grid. The initial concentration of bacteria was back-calculated by using the Petroff-Hauser formula shown in equation two. [formula]
# For the urine solutions containing the urease inhibitor and two control solutions (one containing bacteria and the other without), a series of six test tubes was set up. […] The pH of each of the samples was measured initially and then at 2 hour intervals up to 12 hours. […]
# [7] = Swelling in solvents for drug loading and AHA loading of the hydrogel; assay type: physicochemical
# Protocol: Six pieces of the MMA/AA (90/9) polymer were weighed in the dry state. Each piece was placed into 4 ml of a separate solvent. The solvents used were pH buffers with pH values of 4.0, 7.4, and 9.0, 90 v/v % ethanol, methanol, and 90 v/v % acetone at 37° C. […] A 16 w/w % solution of acetohydroxamic acid in 90% acetone was prepared.
# Hydrogel pieces were weighed in the dry state. Six pieces weighing approximately the same were separated out for each respective pH buffer value. Each gel piece was individually placed into a test tube containing 3 ml of the 16% AHA acetone solution. The test tubes were capped and wrapped in parafilm to prevent evaporation of the solvent. The test tubes were placed into a 37° C. water bath for 48 hours. The hydrogel pieces were then removed from the AHA solution and placed in a vacuum oven at 60° C. for solvent evaporation and then at room temperature for a total drying time of 72 hours. The drug-loaded gels were then reweighed, and the total AHA content was calculated.
# Absorbances for each of the solutions were measured at 515 nm on a Perkin-Elmer Lambda 3B UV/VIS Spectrophotometer. A calibration curve was calculated from the standard concentration solutions. The concentrations of the AHA were calculated from the absorbances and raised to the initial surface area of the gel matrix.
# [8] = cited from earlier work; remark: listed apart in the source
# [9] = test system: bacteria; settings: cited from earlier work
molecule,measurement,setting,value
O=C(O)CC(O)(CC(=O)O)C(=O)O [Sodium citrate],prevention of struvite encrustation,[1],shows potential
heparin sulfate,prevention of struvite encrustation,[1],ineffective
Gentamicin,effectiveness against Proteus sp. and other urease-producing organisms,[2],highly effective
same,toxicity limiting plasma concentrations,[3],systemic nephrotoxicity
[H]/N=C(\N/C(=N/[H])NCCCCCCNC(=N)NC(=N)Nc1ccc(Cl)cc1)Nc1ccc(Cl)cc1 [chlorhexidine],solubility in alcohols,[4],highly soluble
O=C(O)CNC(=O)c1ccccc1 [hippuric acid],solubility in alcohols,[4],highly soluble
Chondroitin sulfate,prevention of struvite encrustation,[1],ineffective
"CC(=O)NO [AHA, acetohydroxamic acid]",absorption from the gastrointestinal tract,"[5]; human, in vivo",well absorbed
same,adverse effects limiting use,[5]; patients,"Coomb's hemolytic anemia, GI complaints, bone marrow depression, and teratogenicity"
same,effect of AHA on the activity of urease (pH of artificial urine),"[6]; AHA 7.5-750 μg/ml, 37° C., up to 24 hours",resists pH increase for a longer time and experiences a smaller overall pH increase
same,concentration of AHA giving therapeutic benefit,[6]; artificial urine,7.5 µg/mL
same,concentration near the saturation point,[7]; in 90% acetone,~16 w/w %
same,solubility of AHA in the chosen solutions,"[7]; pH 4.0, 7.4, 9.0 buffers, 90 v/v % ethanol, methanol, 90 v/v % acetone",very soluble
same,pKa,[8],9.3
same,effect of the presence of AHA on methenamine,[9],increases the antibacterial activity of the methenamine
